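Each compound was tested at five concentrations against cells in 96-well plates for 48 hours. GI50: concentration for 50% inhibition of growth. TGI is the concentration that stops growth completely.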
What was measured:
Experiment in all cases: NCI anticancer screen, dose series, 48 h
RXF 393 renal = test system: RXF 393 renal
SNB-19 CNS = test system: SNB-19 CNS
SK-MEL-28 melanoma = test system: SK-MEL-28 melanoma
BT-549 breast = test system: BT-549 breast
ACHN renal = test system: ACHN renal
NCI-H226 lung = test system: NCI-H226 lung
K-562 leukemia = test system: K-562 leukemia
SF-295 CNS = test system: SF-295 CNS
SF-539 CNS = test system: SF-539 CNS
UACC-62 melanoma = test system: UACC-62 melanoma
A498 renal = test system: A498 renal
HT29 colon = test system: HT29 colon
NCI-H522 lung = test system: NCI-H522 lung
NCI/ADR-RES ovarian = test system: NCI/ADR-RES ovarian
HCT-15 colon = test system: HCT-15 colon
HOP-92 NSCLC = test system: HOP-92 NSCLC
RPMI-8226 leukemia = test system: RPMI-8226 leukemia
HCC-2998 colon = test system: HCC-2998 colon
SW-620 colon = test system: SW-620 colon
KM12 colon = test system: KM12 colon
SK-OV-3 ovarian = test system: SK-OV-3 ovarian
EKVX NSCLC = test system: EKVX NSCLC
NCI-H23 lung = test system: NCI-H23 lung
OVCAR-3 ovarian = test system: OVCAR-3 ovarian
T-47D breast = test system: T-47D breast
MCF7 breast = test system: MCF7 breast
PC-3 prostate = test system: PC-3 prostate
IGROV1 ovarian = test system: IGROV1 ovarian
DU-145 prostate = test system: DU-145 prostate

Work on `C=C1C(=O)O[C@H]2[C@H]1CC/C(Cn1cc(Cc3c[nH]c4ccccc34)nn1)=C\CC[C@@]1(C)O[C@@H]21` yielded a GI50 (RXF 393 renal) of 1.63 µM, a TGI (RXF 393 renal) of 3.63 µM and a GI50 (SNB-19 CNS) of 2.55 µM. For the same molecule, the TGI (SNB-19 CNS) was 6.33 µM, the GI50 (SK-MEL-28 melanoma) was 1.66 µM and the TGI (SK-MEL-28 melanoma) was 3.22 µM. It also gave a GI50 (BT-549 breast) of 1.41 µM, a TGI (BT-549 breast) of 2.76 µM and a GI50 (ACHN renal) of 1.47 µM. For the same molecule, the TGI (ACHN renal) was 2.8 µM, the GI50 (NCI-H226 lung) was 2.1 µM and the TGI (NCI-H226 lung) was 4.75 µM. The GI50 (K-562 leukemia) was 1.81 µM, the TGI (K-562 leukemia) was 6.14 µM and the GI50 (SF-295 CNS) was 4.71 µM. The TGI (SF-295 CNS) was 17.2 µM, the GI50 (SF-539 CNS) was 1.76 µM and the TGI (SF-539 CNS) was 3.35 µM. It also gave a GI50 (UACC-62 melanoma) of 1.66 µM, a TGI (UACC-62 melanoma) of 3.13 µM and a GI50 (A498 renal) of 3.9 µM. For the same molecule, the TGI (A498 renal) was 14.3 µM, the GI50 (HT29 colon) was 1.95 µM and the TGI (HT29 colon) was 3.72 µM. The GI50 (NCI-H522 lung) was 1.43 µM, the TGI (NCI-H522 lung) was 3 µM and the GI50 (NCI/ADR-RES ovarian) was 6.22 µM. It also gave a TGI (NCI/ADR-RES ovarian) of 21.9 µM, a GI50 (HCT-15 colon) of 1.59 µM and a TGI (HCT-15 colon) of 3.35 µM. It also gave a GI50 (HOP-92 NSCLC) of 2 µM, a TGI (HOP-92 NSCLC) of 3.75 µM and a GI50 (RPMI-8226 leukemia) of 2.11 µM. For the same molecule, the TGI (RPMI-8226 leukemia) was 5.35 µM, the GI50 (HCC-2998 colon) was 2.18 µM and the TGI (HCC-2998 colon) was 3.92 µM. It also gave a GI50 (SW-620 colon) of 1.74 µM, a TGI (SW-620 colon) of 3.56 µM and a GI50 (KM12 colon) of 2.34 µM. The TGI (KM12 colon) was 4.99 µM, the GI50 (SK-OV-3 ovarian) was 14.2 µM and the TGI (SK-OV-3 ovarian) was 27.4 µM. It also gave a GI50 (EKVX NSCLC) of 1.84 µM, a TGI (EKVX NSCLC) of 3.98 µM and a GI50 (NCI-H23 lung) of 2.02 µM. The TGI (NCI-H23 lung) was 4.56 µM, the GI50 (OVCAR-3 ovarian) was 1.73 µM and the TGI (OVCAR-3 ovarian) was 3.15 µM. For the same molecule, the GI50 (T-47D breast) was 1.87 µM, the TGI (T-47D breast) was 4.7 µM and the GI50 (MCF7 breast) was 1.5 µM. The TGI (MCF7 breast) was 3.34 µM, the GI50 (PC-3 prostate) was 1.88 µM and the TGI (PC-3 prostate) was 3.81 µM. It also gave a GI50 (IGROV1 ovarian) of 1.92 µM, a TGI (IGROV1 ovarian) of 3.84 µM and a GI50 (DU-145 prostate) of 1.54 µM. For the same molecule, the TGI (DU-145 prostate) was 2.88 µM.
